Results on ten compounds are retold here after PubChem BioAssay (NCI).

“And” between values parts separate entries of the source, which are not always exact repeats. Equal values may be shown once.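 Briefly, cells in 96-well plates were exposed to five compound concentrations for 48 h, and endpoints were estimated by linear interpolation. Abbreviation: GI50, concentration required for 50% inhibition of growth. At the TGI there is no net growth.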 Some results are limits rather than exact numbers.

What all share (assay): growth of human tumour cells (NCI), 48 h
Experiment [1] has as its system UACC-62 melanoma.
The test system of experiment [2] is K-562 leukemia.
Experiment [3] relates to CAKI-1 renal.
Experiment [4] relates to NCI-H460 lung.
The subject of experiment [5] is SW-620 colon.
The subject of experiment [6] is A549 NSCLC.
Experiment [7] concerns MDA-MB-435.
The test system of experiment [8] is CCRF-CEM leukemia.
Experiment [9] concerns HS 578T breast.
The subject of experiment [10] is BT-549 breast.

As to `CN(Cc1cccc(Cl)c1)c1ccc(CO)c(Cl)c1`, the GI50 in experiment [1] is 0.321 µM; in [2] it was 8.76 µM; in [3], 2.36 µM; in experiment [4], 1.44 µM; in [5], 5.93 µM; in experiment [6], 5.19 µM. The GI50 in experiment [7] is 24.3 µM; in experiment [8], 22.7 µM; in [9], 19.7 µM; in [10], 14.6 µM. In addition, the TGI was 3.75 µM in [1]; greater than 100 µM in [2]; 23.4 µM in experiment [3]; 15.2 µM in experiment [4]; greater than 42.9 µM in experiment [5]; 23.9 µM in experiment [6]. For the same compound, the TGI in experiment [7] was 85.5 µM; in experiment [8], greater than 73.6 µM; in experiment [9] it was greater than 64.5 µM; in experiment [10], 34.5 µM.
Regarding `COc1ccc(/C=C2\CCC(CN(C)C)C2=O)cc1` (configuration not stated), the TGI in experiment [1] turned out to be 22.6 µM; in experiment [2], 7.25 µM; in [3], 5.05 µM; in [4], 36.4 µM; in [5], 4.32 µM; in [6], 30.6 µM. For the same compound, the TGI in [7] was 3.63 µM; in experiment [8], greater than 25.9 µM; in [9] it was greater than 100 µM; in experiment [10], 9.27 µM.
In the case of `CN(CC(=O)O)Cc1c[nH]c2ccccc12`, the TGI in experiment [1], in [2], in experiment [3], in [4], in experiment [5] and in experiment [6] was greater than 100 µM throughout. The TGI in [7], in experiment [8], in [9] and in experiment [10] was greater than 100 µM in each case.
Take `COC(=O)c1cccc(COc2ccc([N+](=O)[O-])cc2Cl)c1`: the TGI in [1], in [2], in experiment [3], in [4], in experiment [5] and in [6] was greater than 100 µM each time. Besides, the TGI in [7], in experiment [8], in experiment [9] and in experiment [10] was greater than 100 µM throughout.
For `O=c1c(Br)ccc(Br)cc1Br`, the GI50 in experiment [1] was 1.75 µM; in [2], 0.527 µM; in [3] it was 1.7 µM; in [4], 4.88 µM; in [5] it was 0.268 µM; in experiment [6] it was 9.02 µM. For the same compound, the GI50 is 1.85 µM in experiment [7], 0.317 µM in experiment [8], 3.44 µM in [9] and 2.08 µM in experiment [10]. The TGI in experiment [1] is 3.27 µM; in [2], 3.64 µM; in [3] it was 3.32 µM; in [4], 11.5 µM; in experiment [5], 0.673 µM; in experiment [6] it was 31.8 µM. The TGI in experiment [7] stood at 4.38 µM; in experiment [8] it was 1.58 µM; in experiment [9] it was 23.1 µM; in [10] it was 3.98 µM.
For the compound `COc1nc(C(Cl)(Cl)Cl)c(Cl)c(OC)c1Cl`, the GI50 in [1] was greater than 50.4 µM; in experiment [2], greater than 42.6 µM; in experiment [3] it was greater than 46 µM; in [4], greater than 39.4 µM; in experiment [5], greater than 49.3 µM; in experiment [6], greater than 52.5 µM. Also, the GI50 in experiment [8] is greater than 45.5 µM. For the same compound, the TGI in experiment [1] is > 88.8 µM and 54.5 µM; in experiment [2] it was > 63.4 µM and 94.2 µM; in [3], > 72.9 µM and 74.6 µM; in [4], > 57.9 µM and 61.2 µM; in experiment [5] it was > 74.8 µM and 75 µM; in experiment [6], > 88.9 µM and 77.8 µM. Also, the TGI in experiment [7] is 79.7 µM; in experiment [8], > 64.4 µM and 121 µM; in experiment [9], 75.5 µM; in [10] it was 71.3 µM.
For the compound `COc1cc2c(cc1OC)-c1c(c3ccc([N+](=O)[O-])cc3c(=O)n1CCCBr)C2=O`, the GI50 in experiment [1] was 2.83 µM; in experiment [2] it was 5.2 µM; in experiment [3], 0.513 µM; in [4], 0.573 µM; in [5], 21.8 µM; in experiment [6] it was 28.9 µM. Also, the GI50 in experiment [7] is 25.4 µM; in experiment [8], 0.425 µM; in experiment [9], greater than 100 µM; in experiment [10], greater than 100 µM. The TGI is 75.4 µM in experiment [1]; greater than 100 µM in experiment [2]; greater than 100 µM in experiment [3]; greater than 100 µM in experiment [4]; greater than 100 µM in [5]; greater than 100 µM in experiment [6]. Further, the TGI in [7] was greater than 100 µM; in experiment [8], 67.7 µM; in experiment [9] it was greater than 100 µM; in experiment [10] it was greater than 100 µM.
`COc1ccc(/C=C/c2cnnc3ccccc23)cc1OC`: the TGI in experiment [1], in experiment [2], in experiment [3], in experiment [4], in experiment [5] and in [6] was greater than 10 µM throughout. Also, the TGI in experiment [7], in [8], in [9] and in experiment [10] was greater than 10 µM in each case.
`Nc1nc(N)c(N=Nc2ccc([As](=O)(O)O)c(O)c2)c(N)n1`: the TGI in experiment [1] was greater than 100 µM; in experiment [2] it was greater than 100 µM; in [3], greater than 100 µM; in experiment [4], greater than 28.1 µM; in experiment [5], greater than 100 µM; in experiment [6] it was greater than 100 µM. Also, the TGI in [7] was 6.37 µM; in experiment [8], greater than 19.7 µM; in experiment [9], greater than 77.3 µM; in [10], greater than 100 µM.
`COc1cccc(-c2nn(C)c3sc(C(=O)NCCN4CCN(c5ccccc5F)CC4)cc23)c1`: the GI50 in [1] was 10.5 µM; in experiment [2], 3.78 µM; in experiment [3], 9.02 µM; in [4] it was 14.8 µM; in [5], 33.7 µM; in experiment [6] it was 15.3 µM. Further, the GI50 in experiment [7] is 10.5 µM; in [8] it was 8.54 µM; in [9], 26.2 µM; in experiment [10], greater than 100 µM. Besides, the TGI in [1] was 84.5 µM; in [2], greater than 100 µM; in experiment [3] it was 91.5 µM; in experiment [4] it was greater than 100 µM; in experiment [5], greater than 100 µM; in experiment [6], greater than 100 µM. In addition, the TGI in [7], in experiment [8], in [9] and in [10] was greater than 100 µM each time.
